Experimental data published in patent publication US4360511A, “Amines useful as brain imaging agents” (Medi-Physics, Inc., priority 1980, dated 1982).
Where two headings read alike, the source gives them in different places.

Legend:
[1] = Robinson et al, J Nucl Med 17, p 1093 (1976); cited from earlier work
[2] = Bioassay: distribution of I-123-labeled compounds in organs of rats after tail vein injection (percent dose/gram, brain/blood ratio); type: in vivo, Female Sprague-Dawley rats; conditions: for tissue uptake at 1 h / tissue uptake at 5 min: rat, iv, 0.05 to 1.0 mCi, two rats; for tissue uptake at 1 h / Brain/Blood Ratio 60 min.: 60 minutes post-injection; for Brain/Blood Ratio 5 min. / tissue uptake at 5 min: 5 minutes post-injection
Description: Female Sprague-Dawley rats weighing approximately 150 g were anesthetized with sodium pentobarbital and were injected in a tail vein with from 0.05 to 1.0 mCi (in a volume of 0.2 to 0.5 ml) of the I-123-labeled compound. Two specimens were utilized for each test.
Two animals each were sacrificed at 5 minutes and 60 minutes post-injection, the tails discarded and the amount of activity in various organs determined. Each organ was counted at a standardized geometry with a sodium iodide crystal scintillation counter adjusted for the 159 keV emission of I-123. The organs were also weighed to one thousandth of a gram and the activity calculated as a percent of administered dose per gram of organ weight.
The ratio of brain-to-blood activity was calculated as a percent of administered dose per gram.

[3] = Friedman et al, July 1978; cited from earlier work
[4] = blood, read-out: Percent Dose/Gram Blood 60 min.
[5] = brain, read-out: Percent Dose/Gram Brain 60 min.
[6] = heart, read-out: Percent Dose/Gram Heart 60 min.
[7] = blood, read-out: Percent Dose/Gram Blood 5 min.
[8] = brain, read-out: Percent Dose/Gram Brain 5 min.
[9] = heart, read-out: Percent Dose/Gram Heart 5 min.

Row | Compound | concentration in the brain [1] | in vivo deiodination [1] | tissue uptake at 1 h [2, 4] [%ID/g] | tissue uptake at 1 h [2, 5] [%ID/g] | tissue uptake at 1 h [2, 6] [%ID/g] | Brain/Blood Ratio 5 min. [2] | Brain/Blood Ratio 60 min. [2] | tissue uptake at 5 min [2, 7] [%ID/g] | tissue uptake at 5 min [2, 8] [%ID/g] | tissue uptake at 5 min [2, 9] [%ID/g] | activity carried across the blood/brain barrier [3] | decarboxylation in vivo [3]
1 | Cc1c([123I])c(=O)n(-c2ccccc2)n1C [I--123-iodoantipyrine, I-123 labeled 4-iodoantipyrine, reference compound] | suboptimal concentration in the brain | rapid in vivo deiodination | 0.94 | 0.17 | 0.53 |  |  |  |  |  |  | 
2 | [123I]c1ccccc1CNCCc1ccccc1 [I--123-N--β-phenethyl-o-iodobenzylamine] |  |  | 0.14 | 0.14 | 0.15 | 2.52 | 0.96 | 0.27 | 0.68 | 0.56 |  | 
3 | [123I]c1ccccc1CN1CCCCC1 [I--123-N--o-iodobenzylpiperidine] |  |  | 0.32 | 0.29 | 0.38 | 1.56 | 0.91 | 0.6 | 0.93 | 0.56 |  | 
4 | [123I]c1ccc(N(Cc2ccccc2)Cc2ccccc2)cc1 [I--123-N,N--dibenzyl-p-iodoaniline] |  |  | 0.41 | 0.22 | 0.46 | 0.53 | 0.54 | 0.66 | 0.35 | 2.1 |  | 
5 | CC(C)N(Cc1ccccc1[123I])C(C)C [I--123-N,N--diisopropyl-o-iodobenzylamine] |  |  | 0.35 | 0.46 | 0.46 | 5.73 | 1.31 | 0.25 | 1.4 | 2.12 |  | 
6 | CC(C)Nc1ccccc1[123I] [I--123-N--isopropyl-o-iodoaniline] |  |  | 0.5 | 0.13 | 0.29 | 1.13 | 0.26 | 0.78 | 0.88 | 0.75 |  | 
7 | NCCc1ccccc1[123I] [I--123-o-iodo-β-phenethylamine] |  |  |  |  |  | 0.49 |  | 1.43 | 0.7 | 1.22 |  | 
8 | C[C@H](N)Cc1ccc([123I])cc1 [I--123-S--p-iodoamphetamine, I-123-S-p-iodoamphetamine] |  |  | 0.17 | 1.88 | 0.86 | 7.04 | 11.30 | 0.17 | 1.22 | 1.52 |  | 
9 | C[C@@H](N)Cc1ccc([123I])cc1 [I--123-R--p-iodoamphetamine, I-123-R-p-iodoamphetamine] |  |  | 0.12 | 2.07 | 1.09 | 10.60 | 18.50 | 0.15 | 1.38 | 2.43 |  | 
10 | 5-hydroxytryptophan |  |  |  |  |  |  |  |  |  |  | carried some activity across the blood/brain barrier | decarboxylated in vivo
11 | [123I]c1ccc(NCCc2ccccc2)cc1 [I--123-N--β-phenethyl-p-iodoaniline] |  |  |  |  |  | 1.06 |  | 0.88 | 0.93 | 1.38 |  | 
12 | N#CC(N)c1ccccc1[123I] (stereo not drawn) [I--123-α-amino-o-iodophenylacetonitrile] |  |  |  |  |  | 1.74 |  | 0.34 | 0.58 | 0.86 |  | 
13 | Cc1cccc(C)c1NC(=O)CNCCc1ccccc1[123I] [I--123-N--(2,6-dimethylphenylcarbamoyl)methyl-o-iodo-β-phenethylamine] |  |  | 0.26 | 0.08 | 0.21 | 1.33 | 0.31 | 0.55 | 0.73 | 0.74 |  | 
14 | CC(C)N(CCc1ccccc1)CCc1ccccc1[123I] [I--123-N--β-phenethyl-N--isopropyl-o-iodo-β-phenethylamine] |  |  |  |  |  | 1.83 |  | 0.29 | 0.53 | 2.01 |  | 
15 | CCNCc1ccccc1[123I] [I--123-N--ethyl-o-iodobenzylamine] |  |  | 0.34 | 0.44 | 0.44 | 4.22 | 1.31 | 0.25 | 1.06 | 0.79 |  | 
16 | CC1CCC(C)N1Cc1ccccc1[123I] (stereo not drawn) [I--123-N--o-iodobenzyl-2,5-dimethylpyrrolidine] |  |  | 0.15 | 0.22 | 0.46 | 3.17 | 1.52 | 0.37 | 1.16 | 1.03 |  | 
17 | [123I]c1ccc(NCc2ccccc2)cc1 [I--123-N--benzyl-p-iodoaniline] |  |  | 0.86 | 0.44 | 0.59 | 1.57 | 0.51 | 1 | 1.57 | 1.28 |  | 
